Assays:
Conditions in all cases: incubation time: 72 h
BT-474 [1] = assay: normalised viability (% of control), CellTiter-Blue; higher = more viable cells (about 100 = DMSO control)
Method: (§1)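 DSRT, CellTiter-Blue viability, 72 h incubation. Signal is normalised to DMSO and benzethonium chloride controls. Value is the normalised response at dose 3.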

BT-549 [2] = assay: as above
Method: as §1

CAL-120 [3] = assay: as above
Method: as §1

CAL-148 = assay: as above
Method: as §1

CAL-51 = assay: as above
Method: as §1

CAL-85-1 = assay: as above
Method: as §1

DU-4475 = assay: as above
Method: as §1

HCC1599 = assay: as above
Method: as §1

HCC1937 [4] = assay: as above
Method: as §1

HDQ-P1 = assay: as above
Method: as §1

Hs578T [5] = assay: as above
Method: as §1

MDA-MB-231 = assay: as above
Method: as §1

MDA-MB-436 = assay: as above
Method: as §1

MDA-MB-453 = assay: as above
Method: as §1

MDA-MB-468 [6] = assay: as above
Method: as §1

MFM-223 = assay: as above
Method: as §1

SK-BR-3 [7] = assay: as above
Method: as §1

CAL-120 [8] = assay: drug sensitivity score (DSS), CellTiter-Blue viability (DSS (AUC-based score)); higher = stronger viability inhibition; extreme values may be limits of the assay
Method: (§2)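 DSRT with the CellTiter-Blue (resazurin reduction) viability readout, fluorescence 560/590 nm, 72 h incubation. Plates were normalised to DMSO and benzethonium chloride controls. DSS is computed from the area under the fitted dose-response curve (5 or 9 concentrations).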

SK-BR-3 [9] = assay: as above
Method: as §2

BT-474 [10] = assay: drug sensitivity score (DSS), CellTox Green (DSS (AUC-based score)); higher = stronger drug effect (viability inhibition or cytotoxicity); extreme values may be limits of the assay
In short: (§3)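 Normalisation on every plate relied on 0.1 % DMSO and a positive kill control. The plates, 384-well format, held compound at 5 concentrations 10-fold apart across a compound-specific 10,000-fold range, and breast cancer cell lines in 20 µl suspension were incubated on them for 72 h before CellTox Green and then CellTiter-Glo readings. The drug sensitivity score derives from the area under the fitted dose-response curve.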

BT-549 [11] = assay: as above
In short: as §3

CAL-120 [12] = assay: as above
In short: as §3

HCC1143 = assay: as above
In short: as §3

HCC1937 [13] = assay: as above
In short: as §3

Hs578T [14] = assay: as above
In short: as §3

MCF-10A = assay: as above
In short: as §3

MDA-MB-468 [15] = assay: as above
In short: as §3

Structure (SMILES) | drug sensitivity score (CAL-120 [8]) | drug sensitivity score (SK-BR-3 [9]) | drug sensitivity score (BT-474 [10]) | drug sensitivity score (BT-549 [11]) | drug sensitivity score (CAL-120 [12]) | drug sensitivity score (HCC1143) | drug sensitivity score (HCC1937 [13]) | drug sensitivity score (Hs578T [14]) | drug sensitivity score (MCF-10A) | drug sensitivity score (MDA-MB-468 [15]) | normalised viability (BT-474 [1]; 100 nM) [%] | normalised viability (BT-549 [2]; 100 nM) [%] | normalised viability (CAL-120 [3]; 100 nM) [%] | normalised viability (CAL-148; 10 nM) [%] | normalised viability (CAL-51; 10 nM) [%] | normalised viability (CAL-85-1; 10 nM) [%] | normalised viability (DU-4475; 10 nM) [%] | normalised viability (HCC1599; 100 nM) [%] | normalised viability (HCC1937 [4]; 100 nM) [%] | normalised viability (HDQ-P1; 10 nM) [%] | further results
C[C@]12O[C@H](C[C@]1(O)CO)n1c3ccccc3c3c4c(c5c6ccccc6n2c5c31)CNC4=O [Lestaurtinib] | 7.43 | 1.47 | 0.706 | 2.26 | 0 | 0 | 0 | 4.21 | 0 | 0 | – | – | – | – | – | – | – | – | – | – | normalised viability (BT-474 [1]; 10 nM): 127%; normalised viability (BT-549 [2]; 10 nM): 106%; normalised viability (CAL-120 [3]; 10 nM): 103%; normalised viability (CAL-148; 1 nM): 101%; normalised viability (CAL-51; 1 nM): 115%; normalised viability (CAL-85-1; 1 nM): 99.7%; normalised viability (DU-4475; 1 nM): 109%; normalised viability (HCC1599; 10 nM): 102%; normalised viability (HCC1937 [4]; 10 nM): 79.5%; normalised viability (HDQ-P1; 1 nM): 113%; normalised viability (Hs578T [5]; 10 nM): 83%; normalised viability (MDA-MB-231; 10 nM): 110%; normalised viability (MDA-MB-436; 10 nM): 103%; normalised viability (MDA-MB-453; 1 nM): 98.7%; normalised viability (MDA-MB-468 [6]; 10 nM): 92.9%; normalised viability (MFM-223; 10 nM): 107%; normalised viability (SK-BR-3 [7]; 10 nM): 91.3%
O=C1c2c(O)ccc(O)c2C(=O)c2c(NCCNCCO)ccc(NCCNCCO)c21 [Mitoxantrone] | 9.16 | 15.3 | 0 | 0 | 0 | 0 | 0 | 0 | 0 | 0 | – | – | – | – | – | – | – | – | – | – | normalised viability (BT-474 [1]; 10 nM): 98.2%; normalised viability (BT-549 [2]; 10 nM): 87.7%; normalised viability (CAL-120 [3]; 10 nM): 67.4%; normalised viability (CAL-148; 1 nM): 94.3%; normalised viability (CAL-51; 1 nM): 104%; normalised viability (CAL-85-1; 1 nM): 95.1%; normalised viability (DU-4475; 1 nM): 102%; normalised viability (HCC1599; 10 nM): 108%; normalised viability (HCC1937 [4]; 10 nM): 46.6%; normalised viability (HDQ-P1; 1 nM): 95%; normalised viability (Hs578T [5]; 10 nM): 71.8%; normalised viability (MDA-MB-231; 10 nM): 72.5%; normalised viability (MDA-MB-436; 10 nM): 99.6%; normalised viability (MDA-MB-453; 1 nM): 84.8%; normalised viability (MDA-MB-468 [6]; 10 nM): 80.4%; normalised viability (MFM-223; 10 nM): 85.9%; normalised viability (SK-BR-3 [7]; 10 nM): 75.6%
Nc1ccccc1NC(=O)c1ccc(CNc2nccc(-c3cccnc3)n2)cc1 [Mocetinostat] | 13.4 | 10.9 | 2.44 | 1.91 | 3.91 | 0.874 | 0.396 | 7.44 | 0 | 10.9 | 95.1 | 81.6 | 53.6 | 111 | 98.2 | 91.2 | 91 | 86.9 | 79.2 | 117 | normalised viability (Hs578T [5]; 100 nM): 80.8%; normalised viability (MDA-MB-231; 100 nM): 84.3%; normalised viability (MDA-MB-436; 100 nM): 81.2%; normalised viability (MDA-MB-453; 10 nM): 94.2%; normalised viability (MDA-MB-468 [6]; 100 nM): 129%; normalised viability (MFM-223; 100 nM): 80.7%; normalised viability (SK-BR-3 [7]; 100 nM): 83.9%
Cc1ccc(Nc2nccc(N(C)c3ccc4c(C)n(C)nc4c3)n2)cc1S(N)(=O)=O [Pazopanib] | 0 | 0 | 0 | 0 | 0 | 1.06 | 0 | 0 | 0 | 0 | 99.7 | 96.9 | 81.6 | 88.3 | 104 | 95.6 | 103 | 108 | 94 | 93.8 | normalised viability (Hs578T [5]; 100 nM): 86.5%; normalised viability (MDA-MB-231; 100 nM): 94.3%; normalised viability (MDA-MB-436; 100 nM): 88.3%; normalised viability (MDA-MB-453; 10 nM): 100%; normalised viability (MDA-MB-468 [6]; 100 nM): 104%; normalised viability (MFM-223; 100 nM): 71.7%; normalised viability (SK-BR-3 [7]; 100 nM): 78.7%
O=C(CCBr)N1CCN(C(=O)CCBr)CC1 [Pipobroman] | 0 | 0 | 0 | 0 | 0 | 1.77 | 0 | 0 | 0 | 0 | 119 | 86.4 | 96 | 100 | 110 | 110 | 103 | 93.4 | 87.9 | 99.4 | normalised viability (Hs578T [5]; 100 nM): 91.4%; normalised viability (MDA-MB-231; 100 nM): 94.7%; normalised viability (MDA-MB-436; 100 nM): 93%; normalised viability (MDA-MB-453; 10 nM): 102%; normalised viability (MDA-MB-468 [6]; 100 nM): 98%; normalised viability (MFM-223; 100 nM): 98.8%; normalised viability (SK-BR-3 [7]; 100 nM): 108%
c1cc(CN2CCCNCCNCCCNCC2)ccc1CN1CCCNCCNCCCNCC1 [Plerixafor] | 0 | 0 | 0 | 0 | 0 | 0 | 0 | 0 | 0 | 4.79 | – | – | – | – | – | – | – | – | – | – | normalised viability (BT-474 [1]; 25 nM): 108%; normalised viability (BT-549 [2]; 25 nM): 117%; normalised viability (CAL-120 [3]; 25 nM): 80.1%; normalised viability (CAL-148; 2.5 nM): 92.3%; normalised viability (CAL-51; 2.5 nM): 100%; normalised viability (CAL-85-1; 2.5 nM): 96.9%; normalised viability (DU-4475; 2.5 nM): 93.1%; normalised viability (HCC1599; 25 nM): 101%; normalised viability (HCC1937 [4]; 25 nM): 102%; normalised viability (HDQ-P1; 2.5 nM): 112%; normalised viability (Hs578T [5]; 25 nM): 93.4%; normalised viability (MDA-MB-231; 25 nM): 93.9%; normalised viability (MDA-MB-436; 25 nM): 95.7%; normalised viability (MDA-MB-453; 2.5 nM): 106%; normalised viability (MDA-MB-468 [6]; 25 nM): 98.5%; normalised viability (MFM-223; 25 nM): 92.6%; normalised viability (SK-BR-3 [7]; 25 nM): 84.3%

From the supplement of paper PMC4862054
